Laboratory results published in ChEMBL document CHEMBL4359822, “Design, synthesis of 4,5-diazafluorene derivatives and their anticancer activity via targeting telomeric DNA G-quadruplex” (Eur J Med Chem, 2019).
Active and inactive are the calls of the source. No cut-off for these calls is given here.

Experiments:
[1] = Binding affinity to biotinylated Tel-26nt G-rich DNA (unknown origin) at 1:1 ratio of test compound to DNA by SPR analysis
HepG2 [2] = assay: Inhibition of cell migration in human HepG2 cells at 0.2 uM incubated for 48 hrs by wound healing assay relative to control; format: functional; details: HepG2, 48 h
AGS [3] = assay: Antiproliferative activity against human AGS cells incubated for 36 hrs by CCK8 assay; format: functional, cell-based
[4] = Binding affinity to Tel-26nt G-rich DNA (unknown origin) at => 3 uM incubated for 24 hrs by EMSA
[5] = Binding affinity to Tel-26nt mutated-single-stranded DNA (unknown origin) at 4 to 16 uM measured after each titration for 15 mins during 24 hrs incubation by circular dichroism analysis
[6] = Binding affinity to biotinylated Tel26nt double stranded DNA (unknown origin) assessed as association rate constant by SPR analysis
A549 [7] = assay: Inhibition of cell migration in human A549 cells at 0.1 uM incubated for 48 hrs by wound healing assay relative to control; format: functional; details: A549, 48 h
HepG2 [8] = assay: Antiproliferative activity against human HepG2 cells at 10 uM incubated for 36 hrs by CCK8 assay; format: functional, cell-based
MRC5 = assay: Antiproliferative activity against human MRC5 cells incubated for 36 hrs by CCK8 assay; format: cell-based; details: MRC5, 36 h
[9] = Binding affinity to biotinylated Tel26nt double stranded DNA (unknown origin) at 1:1 ratio of test compound to DNA by SPR analysis
A549 [10] = assay: Antiproliferative activity against human A549 cells incubated for 36 hrs by CCK8 assay; format: functional, cell-based; details: A549, 36 h
[11] = Binding affinity to Tel-26nt G-rich DNA (unknown origin) assessed as change in melting temperature at 8 uM by UV-vis spectrophotometry
A549 [12] = assay: Inhibition of cell migration in human A549 cells at 0.2 uM incubated for 48 hrs by wound healing assay relative to control; format: functional; details: A549, 48 h
[13] = target: Telomerase reverse transcriptase (Homo sapiens) (UniProt O14746); assay: Inhibition of telomerase activity in human A549 cells at 2 to 8 uM by TRAP assay; format: cell-based
Chain of Telomerase reverse transcriptase (Homo sapiens) (O14746 whole entry): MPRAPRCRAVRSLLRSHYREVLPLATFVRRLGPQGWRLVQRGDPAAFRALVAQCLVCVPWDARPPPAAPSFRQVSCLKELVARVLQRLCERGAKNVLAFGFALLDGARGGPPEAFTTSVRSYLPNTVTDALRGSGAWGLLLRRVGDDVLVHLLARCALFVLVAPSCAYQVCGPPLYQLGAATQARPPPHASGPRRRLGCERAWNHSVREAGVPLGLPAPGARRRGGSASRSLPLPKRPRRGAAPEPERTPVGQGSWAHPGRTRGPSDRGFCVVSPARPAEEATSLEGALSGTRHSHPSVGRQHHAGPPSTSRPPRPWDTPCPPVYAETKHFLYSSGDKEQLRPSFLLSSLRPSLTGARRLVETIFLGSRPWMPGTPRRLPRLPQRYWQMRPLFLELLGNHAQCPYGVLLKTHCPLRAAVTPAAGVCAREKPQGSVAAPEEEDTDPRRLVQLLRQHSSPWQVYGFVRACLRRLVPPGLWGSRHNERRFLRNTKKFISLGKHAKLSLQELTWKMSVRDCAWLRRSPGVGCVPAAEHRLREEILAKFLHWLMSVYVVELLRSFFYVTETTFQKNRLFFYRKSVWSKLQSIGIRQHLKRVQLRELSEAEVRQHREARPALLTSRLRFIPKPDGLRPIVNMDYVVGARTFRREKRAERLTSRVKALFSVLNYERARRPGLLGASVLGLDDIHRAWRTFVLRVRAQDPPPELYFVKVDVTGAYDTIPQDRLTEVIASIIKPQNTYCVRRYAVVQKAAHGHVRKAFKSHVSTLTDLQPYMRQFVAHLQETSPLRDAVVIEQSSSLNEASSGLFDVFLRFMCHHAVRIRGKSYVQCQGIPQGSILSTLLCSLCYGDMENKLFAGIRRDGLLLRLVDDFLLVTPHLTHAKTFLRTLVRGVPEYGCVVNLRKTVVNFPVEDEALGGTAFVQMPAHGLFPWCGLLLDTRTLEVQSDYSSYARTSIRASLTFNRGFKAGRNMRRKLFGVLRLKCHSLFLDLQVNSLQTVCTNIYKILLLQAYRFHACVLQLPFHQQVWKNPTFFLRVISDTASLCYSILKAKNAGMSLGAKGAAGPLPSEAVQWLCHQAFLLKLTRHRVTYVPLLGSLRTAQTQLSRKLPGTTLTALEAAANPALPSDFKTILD

A549 [14] = assay: Antiproliferative activity against human A549 cells at 10 uM incubated for 36 hrs by CCK8 assay; format: functional, cell-based
[15] = target: Telomerase reverse transcriptase (Homo sapiens) (UniProt O14746); assay: Inhibition of telomerase activity in human A549 cells at 8 uM by TRAP assay relative to control; format: cell-based
AGS [16] = assay: Inhibition of cell migration in human AGS cells at 0.1 uM incubated for 48 hrs by wound healing assay relative to control; format: functional
[17] = Binding affinity to Tel-26nt G-rich DNA (unknown origin) at 4 to 16 uM measured after each titration for 15 mins during 24 hrs incubation by circular dichroism analysis
[18] = Binding affinity to Tel26nt double stranded DNA (unknown origin) at 4 to 16 uM measured after each titration for 15 mins during 24 hrs incubation by circular dichroism analysis
AGS [19] = assay: Inhibition of cell migration in human AGS cells at 0.4 uM incubated for 48 hrs by wound healing assay relative to control; format: functional
HepG2 [20] = assay: Antiproliferative activity against human HepG2 cells incubated for 36 hrs by CCK8 assay; format: functional, cell-based; details: HepG2, 36 h
[21] = Selectivity index, ratio of IC50 for human MRC5 cells to IC50 for human AGS cells; format: toxicity; details: MRC5 cells versus AGS cells, read-out: Ratio IC50
HepG2 [22] = assay: Inhibition of cell migration in human HepG2 cells at 0.4 uM incubated for 48 hrs by wound healing assay relative to control; format: functional; details: HepG2, 48 h
A549 [23] = assay: Inhibition of cell migration in human A549 cells at 0.4 uM incubated for 48 hrs by wound healing assay relative to control; format: functional; details: A549, 48 h
MCF7 [24] = assay: Inhibition of cell migration in human MCF7 cells at 0.1 uM incubated for 48 hrs by wound healing assay relative to control; format: functional; details: MCF7, 48 h
MCF7 [25] = assay: Antiproliferative activity against human MCF7 cells at 10 uM incubated for 36 hrs by CCK8 assay; format: functional, cell-based
[26] = Binding affinity to Tel-26nt G-rich DNA (unknown origin) at 12 uM incubated for 24 hrs by EMSA
[27] = Binding affinity to 26-nt telomeric G-rich RNA (unknown origin) at 24 uM incubated for 24 hrs by EMSA
[28] = Binding affinity to Tel-26nt G-rich DNA (unknown origin) at 0.25 :1 to 6 : 1 ratio of test compound to DNA measured after each titration for 15 mins during 24 hrs incubation by circular dichroism analysis
[29] = Binding affinity to biotinylated Tel-26nt G-rich DNA (unknown origin) assessed as dissociation rate constant by SPR analysis
MCF7 [30] = assay: Antiproliferative activity against human MCF7 cells incubated for 36 hrs by CCK8 assay; format: functional, cell-based; details: MCF7, 36 h
[31] = Binding affinity to Tel26nt double stranded DNA (unknown origin) at 24 uM incubated for 24 hrs by EMSA
[32] = Binding affinity to biotinylated Tel-26nt G-rich DNA (unknown origin) assessed as association equilibrium constant by SPR analysis
[33] = Binding affinity to biotinylated Tel26nt double stranded DNA (unknown origin) assessed as association equilibrium constant by SPR analysis
[34] = Selectivity ratio of binding affinity to biotinylated Tel26nt double stranded DNA (unknown origin) to binding affinity to biotinylated Tel-26nt G-rich DNA (unknown origin)
[35] = Selectivity index, ratio of IC50 for human MRC5 cells to IC50 for human HEPG2 cells
[36] = Binding affinity to biotinylated Tel-26nt G-rich DNA (unknown origin) assessed as association rate constant by SPR analysis
[37] = Binding affinity to Tel-26nt G-rich DNA (unknown origin) incubated for 24 hrs by EMSA
[38] = Binding affinity to biotinylated Tel26nt double stranded DNA (unknown origin) assessed as dissociation rate constant by SPR analysis
[39] = Binding affinity to Tel-26nt C-rich DNA (unknown origin) at 24 uM incubated for 24 hrs by EMSA
[40] = Selectivity index, ratio of IC50 for human MRC5 cells to IC50 for human A549 cells; format: toxicity; details: MRC5 cells versus A549 cells, read-out: Ratio IC50
[41] = Binding affinity to Tel-26nt G-rich DNA (unknown origin) assessed as change in melting temperature at 8 uM by UV-vis spectrophotometry (reference value: 38.33 +/- 0.07 degreeC)
[42] = Selectivity index, ratio of IC50 for human MRC5 cells to IC50 for human MCF7 cells; format: toxicity; details: MRC5 cells versus MCF7 cells, read-out: Ratio IC50
[43] = Binding affinity to Tel-26nt mutated-single-stranded DNA (unknown origin) at 24 uM incubated for 24 hrs by EMSA
[44] = Binding affinity to Tel-26nt G-rich DNA (unknown origin) assessed as change in melting temperature at 2 uM by UV-vis spectrophotometry (reference value: 38.33 +/- 0.07 degreeC)
[45] = Binding affinity to Tel-26nt G-rich DNA (unknown origin) at 10 uM by UV-Vis spectrophotometric analysis
MCF7 [46] = assay: Inhibition of cell migration in human MCF7 cells at 0.2 uM incubated for 48 hrs by wound healing assay relative to control; format: functional; details: MCF7, 48 h
[47] = Binding affinity to Tel-26nt G-rich DNA (unknown origin) assessed as change in melting temperature by UV-vis spectrophotometry
[48] = Binding affinity to Tel-26nt G-rich DNA (unknown origin) assessed as change in melting temperature at 4 uM by UV-vis spectrophotometry (reference value: 38.33 +/- 0.07 degreeC)
HepG2 [49] = assay: Inhibition of cell migration in human HepG2 cells at 0.1 uM incubated for 48 hrs by wound healing assay relative to control; format: functional; details: HepG2, 48 h
AGS [50] = assay: Antiproliferative activity against human AGS cells at 10 uM incubated for 36 hrs by CCK8 assay; format: functional, cell-based
MCF7 [51] = assay: Inhibition of cell migration in human MCF7 cells at 0.4 uM incubated for 48 hrs by wound healing assay relative to control; format: functional; details: MCF7, 48 h
AGS [52] = assay: Inhibition of cell migration in human AGS cells at 0.2 uM incubated for 48 hrs by wound healing assay relative to control; format: functional

## CN(C)CCCn1cc(C=C2c3cccnc3-c3ncccc32)c(-c2ccc(Br)cc2)n1
[1]
  Activity: Active
HepG2 [2]
  inhibition at 0.2 µM: 49.3%
AGS [3]
  IC50: 1.81 µM
[4]
  Activity: Active
[5]
  Activity: inactive
[6]
  Ka: 1.13 ×10³ /M/s
A549 [7]
  inhibition at 0.1 µM: 22.3%
HepG2 [8]
  growth inhibition (GI): Active
MRC5
  IC50: 7.92 µM
[9]
  Activity: inactive
A549 [10]
  IC50: 1.13 µM
[11]
  ΔTm: 24.3 °C
A549 [12]
  inhibition at 0.2 µM: 61.7%
[13]
  inhibition: Active
A549 [14]
  growth inhibition (GI): Active
[15]
  inhibition: 61.7%
AGS [16]
  inhibition at 0.1 µM: 52.2%
[17]
  Activity: Active
[18]
  Activity: inactive
AGS [19]
  inhibition at 0.4 µM: 89.8%
HepG2 [20]
  IC50: 3.48 µM
[21]
  selectivity ratio: 4.25
HepG2 [22]
  inhibition at 0.4 µM: 69.3%
A549 [23]
  inhibition at 0.4 µM: 84.5%
MCF7 [24]
  inhibition at 0.1 µM: 31.9%
MCF7 [25]
  growth inhibition (GI): Active
[26]
  Activity: Active
[27]
  Activity: inactive
[28]
  Activity: Active
[29]
  Kd: 9.49 ×10⁻² /s
MCF7 [30]
  IC50: 5.27 µM
[31]
  Activity: Active
[32]
  KA: 7.04 ×10⁷ /M
[33]
  KA: 4.38 ×10⁴ /M
[34]
  Selectivity ratio: > 1000
[35]
  Ratio IC50: 2.21
[36]
  Ka: 6.68 ×10⁶ /M/s
[37]
  Activity: Dose-dependent effect
[38]
  Kd: 2.58 ×10⁻² /s
[39]
  Activity: inactive
[40]
  selectivity ratio: 7.01
[41]
  Tm: 44.9 °C
[42]
  selectivity ratio: 1.46
[43]
  Activity: inactive
[44]
  Tm: 48.6 °C
[45]
  Activity: Active
MCF7 [46]
  inhibition at 0.2 µM: 50.3%
[47]
  deltaTm: Dose-dependent effect
[48]
  Tm: 53.1 °C
HepG2 [49]
  inhibition at 0.1 µM: 27.9%
AGS [50]
  growth inhibition (GI): Active
MCF7 [51]
  inhibition at 0.4 µM: 67.3%
AGS [52]
  inhibition at 0.2 µM: 71.7%
